According to patent publication US20080167314A1, “Condensed Imidazole Compound And Use Thereof” (priority 2004, published 2008):

Row | SMILES | melting point
1 | COc1ccc(C(=O)Nc2nccc(-c3c(-c4cccc(C)c4)nc4cccnn34)n2)cc1 [Example 44-2, 4-methoxy-N-{4-[2-(3-methylphenyl)imidazo[1,2-b]pyridazin-3-yl]pyrimidin-2-yl}benzamide] | 193 to 194 °C
2 | CNc1ccc2nc(-c3ccc(F)c(C)c3)c(-c3ccnc(NC(=O)c4ccc(OC)cc4)c3)n2n1 [Example 46, N-{4-[2-(4-Fluoro-3-methylphenyl)-6-(methylamino)imidazo[1,2-b]pyridazin-3-yl]pyridin-2-yl}-4-methoxybenzamide] | 178 to 180 °C
3 | CSc1cc(Cl)nn2c(-c3ccnc(N)c3)c(-c3ccc(F)c(C)c3)nc12 [Example Compound 36-4, 4-[6-chloro-2-(4-fluoro-3-methylphenyl)-8-(methylthio)imidazo[1,2-b]pyridazin-3-yl]-2-pyridylamine] | 237 to 238 °C
4 | Cc1cccc(-c2nc3cccnn3c2-c2ccnc(NC3CC3)c2)c1 [Example Compound 6-4, N-cyclopropyl-4-[2-(3-methylphenyl)imidazo[1,2-b]pyridazin-3-yl]pyridin-2-amine] | 202 to 203 °C
5 | COc1cc(C(=O)Nc2cc(-c3c(-c4ccc(F)c(C)c4)nc4cccnn34)ccn2)ccc1F [Example 42-11, 4-fluoro-N-{4-[2-(4-fluoro-3-methylphenyl)imidazo[1,2-b]pyridazin-3-yl]pyridin-2-yl}-3-methoxybenzamide] | 217 to 218 °C
6 | COc1ccc(C(=O)Nc2cc(-c3c(-c4ccc(F)c(C)c4)nc4cccnn34)ccn2)cc1F [Example 42-12, 3-fluoro-N-{4-[2-(4-fluoro-3-methylphenyl)imidazo[1,2-b]pyridazin-3-yl]pyridin-2-yl}-4-methoxybenzamide] | 202 to 203 °C
7 | CCNC(=O)Nc1cc(-c2c(-c3cccc(Cl)c3)nc3cccnn23)ccn1 [Example Compound 28-7, N-{4-[2-(3-chlorophenyl)imidazo[1,2-b]pyridazin-3-yl]pyridin-2-yl}-N′-ethylurea] | 230 to 231 °C
8 | CSc1ccc(C(=O)Nc2cc(-c3c(-c4ccc(F)c(C)c4)nc4cccnn34)ccn2)cc1 [Example 42-9, N-{4-[2-(4-fluoro-3-methylphenyl)imidazo[1,2-b]pyridazin-3-yl]pyridin-2-yl}-4-(methylthio)benzamide] | 191 to 192 °C
9 | Cc1cccc(-c2nc3cccnn3c2-c2ccnc(NC(=O)NC3CCOCC3)c2)c1 [Example 52, N-{4-[2-(3-Methylphenyl)imidazo[1,2-b]pyridazin-3-yl]pyridin-2-yl}-N′-(tetrahydro-2H-pyran-4-yl)urea] | 222 °C
10 | CCC(=O)Nc1cc(-c2c(-c3ccc(Cl)cc3)nc3cccnn23)ccn1 [Example Compound 21-28, N-{4-[2-(4-chlorophenyl)imidazo[1,2-b]pyridazin-3-yl]pyridin-2-yl}propanamide] | 204 to 205 °C
11 | Cc1cc(-c2nc3cccnn3c2-c2ccnc(NC(=O)C(C)C)c2)ccc1F [Example 42-2, N-{4-[2-(4-fluoro-3-methylphenyl)imidazo[1,2-b]pyridazin-3-yl]pyridin-2-yl}-2-methylpropanamide] | 214 to 215 °C
12 | Cc1cccc(-c2nc3cccnn3c2-c2ccnc(NCC(C)(C)C)c2)c1 [Example compound 6-18, N-(2,2-dimethylpropyl)-4-[2-(3-methylphenyl)imidazo[1,2-b]pyridazin-3-yl]pyridin-2-amine] | 157 to 158 °C
13 | CCNC(=O)Nc1cc(-c2c(-c3ccc(F)c(C)c3)nc3c(C)ccnn23)ccn1 [Example 48-3, N-{4-[2-(4-fluoro-3-methylphenyl)-8-methylimidazo[1,2-b]pyridazin-3-yl]-2-pyridyl}-N′-ethylurea] | 240 to 241 °C
14 | Cc1cccc(-c2nc3cccnn3c2-c2ccnc(NC(=O)c3ccccc3F)c2)c1 [Example Compound 20-5, 2-fluoro-N-{4-[2-(3-methylphenyl)imidazo[1,2-b]pyridazin-3-yl]pyridin-2-yl}benzamide] | 180 to 181 °C
15 | CCNC(=O)Nc1cc(-c2c(-c3ccc(F)c(C)c3)nc3ccc(NC)nn23)ccn1 [Example 48-5, N-ethyl-N′-{4-[2-(4-fluoro-3-methylphenyl)-6-(methylamino)imidazo[1,2-b]pyridazin-3-yl]pyridin-2-yl}urea] | 263 to 264 °C
16 | COc1ccc(C(=O)Nc2cc(-c3c(-c4ccc(F)c(C)c4)nc4ccc(N(C)C)nn34)ccn2)cc1 [Example 45-2, N-{4-[6-(dimethylamino)-2-(4-fluoro-3-methylphenyl)imidazo[1,2-b]pyridazin-3-yl]pyridin-2-yl}-4-methoxybenzamide] | 224 to 225 °C
17 | Cc1cc(-c2nc3cccnn3c2-c2ccnc(NC(=O)c3ccoc3)c2)ccc1F [Example 42-33, N-{4-[2-(4-fluoro-3-methylphenyl)imidazo[1,2-b]pyridazin-3-yl]pyridin-2-yl}-3-furamide] | 199 to 200 °C
18 | Nc1cc(-c2c(-c3cccc(Cl)c3)nc3ccc(Cl)nn23)ccn1 [Example Compound 13-1, 4-[6-chloro-2-(3-chlorophenyl)imidazo[1,2-b]pyridazin-3-yl]pyridin-2-amine] | 268 to 269 °C

Row | SMILES | melting point
19 | COc1ccc(C(=O)Nc2cc(-c3c(-c4ccc(F)c(C)c4)nc4cccnn34)ccn2)c(C)c1 [Example 42-18, N-{4-[2-(4-fluoro-3-methylphenyl)imidazo[1,2-b]pyridazin-3-yl]pyridin-2-yl}-4-methoxy-2-methylbenzamide] | 200 to 202 °C
20 | Cc1cccc(-c2nc3cccnn3c2-c2ccnc(NC3CCCC3)c2)c1 [Example Compound 6-2, N-cyclopentyl-4-[2-(3-methylphenyl)imidazo[1,2-b]pyridazin-3-yl]pyridin-2-amine] | 130 to 131 °C
21 | CSc1ccc2nc(-c3cccc(C)c3)c(-c3ccnc(NC4CCCCC4)c3)n2n1 [Example 10, N-Cyclohexyl-4-[2-(3-methylphenyl)-6-(methylthio)imidazo[1,2-b]pyridazin-3-yl]pyridin-2-amine] | 150 to 151 °C
22 | CCC(=O)Nc1cc(-c2c(-c3cccc(C)c3)nc3cccnn23)ccn1 [Example Compound 20-9, N-{4-[2-(3-methylphenyl)imidazo[1,2-b]pyridazin-3-yl]pyridin-2-yl}propanamide] | 138 to 139 °C
23 | Cc1cc(-c2nc3cccnn3c2-c2ccnc(NC(=O)CC(F)(F)F)c2)ccc1F [Example 42-1, 3,3,3-trifluoro-N-{4-[2-(4-fluoro-3-methylphenyl)imidazo[1,2-b]pyridazin-3-yl]pyridin-2-yl}propanamide] | 220 to 221 °C
24 | Cc1cccc(-c2nc3cccnn3c2-c2ccnc(NC(=O)c3ccc(Cl)cc3)c2)c1 [Example Compound 20-3, 4-chloro-N-{4-[2-(3-methylphenyl)imidazo[1,2-b]pyridazin-3-yl]pyridin-2-yl}benzamide] | 211 to 212 °C
25 | Cc1cccc(-c2nc3cccnn3c2-c2ccnc(NCC3CCCO3)c2)c1 (centres unmarked) [Example Compound 6-16, 4-[2-(3-methylphenyl)imidazo[1,2-b]pyridazin-3-yl]-N-(tetrahydrofuran-2-ylmethyl)pyridin-2-amine] | 137 to 138 °C
26 | CCC(=O)Nc1cc(-c2c(-c3cccc(Cl)c3)nc3cccnn23)ccn1 [Example Compound 21-7, N-{4-[2-(3-chlorophenyl)imidazo[1,2-b]pyridazin-3-yl]pyridin-2-yl}propanamide] | 192 to 193 °C
27 | Cc1cc(-c2nc3cccnn3c2-c2ccnc(NC(=O)CS(C)(=O)=O)c2)ccc1F [Example 57-1, N-{4-[2-(4-fluoro-3-methylphenyl)imidazo[1,2-b]pyridazin-3-yl]pyridin-2-yl}-2-(methylsulfonyl)acetamide] | 240 to 241 °C
28 | Cc1cc(-c2nc3cccnn3c2-c2ccnc(NC(=O)NC(C)(C)C)c2)ccc1F [Example 47-2, N-(tert-butyl)-N′-{4-[2-(4-fluoro-3-methylphenyl)imidazo[1,2-b]pyridazin-3-yl]pyridin-2-yl}urea] | 234 to 235 °C
29 | Cc1cccc(-c2nc3cccnn3c2-c2ccnc(NC(=O)c3ccncc3)n2)c1 [Example 44-3, N-{4-[2-(3-methylphenyl)imidazo[1,2-b]pyridazin-3-yl]pyrimidin-2-yl}isonicotinamide] | 181 to 182 °C
30 | CCCNC(=O)Nc1cc(-c2c(-c3ccc(F)cc3)nc3cccnn23)ccn1 [Example Compound 28-9, N-{4-[2-(4-fluorophenyl)imidazo[1,2-b]pyridazin-3-yl]pyridin-2-yl}-N′-propylurea] | 219 to 220 °C
31 | COc1ccc(CC(=O)Nc2cc(-c3c(-c4cccc(C)c4)nc4cccnn34)ccn2)cc1 [Example Compound 20-12, 2-(4-methoxyphenyl)-N-{4-[2-(3-methylphenyl)imidazo[1,2-b]pyridazin-3-yl]pyridin-2-yl}acetamide] | 213 to 214 °C
32 | Cc1cc(-c2nc3cc(C(C)(C)C)cnn3c2-c2ccnc(NC(=O)c3ccc(F)cc3)c2)ccc1F [Example 41-5, N-{4-[7-tert-butyl-2-(4-fluoro-3-methylphenyl)imidazo[1,2-b]pyridazin-3-yl]-2-pyridyl}-4-fluorobenzamide] | 201 to 202 °C
33 | Cc1cccc(-c2nc3cccnn3c2-c2ccnc(NC(=O)NC(C)C)c2)c1 [Example Compound 27-6, N-isopropyl-N′-{4-[2-(3-methylphenyl)imidazo[1,2-b]pyridazin-3-yl]pyridin-2-yl}urea] | 193 to 195 °C
34 | COc1cc(Cl)nn2c(-c3ccnc(N)c3)c(-c3ccc(F)c(C)c3)nc12 [Example Compound 36-3, 4-[6-chloro-2-(4-fluoro-3-methylphenyl)-8-methoxyimidazo[1,2-b]pyridazin-3-yl]-2-pyridylamine] | 200 to 201 °C
35 | Cc1cccc(-c2nc3cccnn3c2-c2ccnc(NCCO)c2)c1 [Example Compound 6-5, 2-({4-[2-(3-methylphenyl)imidazo[1,2-b]pyridazin-3-yl]pyridin-2-yl}amino)ethanol] | 176 to 177 °C
